Results: US20030157516A1, “G protein coupled receptor” (priority 2000, published 2003)
Where “and” joins values, the source holds several entries; their conditions need not be identical. Identical values can stand only once. One block for each compound: values may come before it.

Assays:
[1] = molecular target: T1, adenine binding GPCR (Rattus norvegicus, UniProt Q7TN49); assay: FLIPR Ca2+ transient assay, antagonism of 30 nM adenine challenge; format: cell-based; settings: 15 minutes incubation with compound (30 μM to 30 pM), then challenge with 30 nM adenine
T1 construct: The full length reading frame was inserted into the mammalian expression vector pcDNA3; expressed in transfected cells; host or cells: HEK293 cells stably transfected with pLEC/Gqi or pLEC/Gqo
T1 sequence (Q7TN49 1-304): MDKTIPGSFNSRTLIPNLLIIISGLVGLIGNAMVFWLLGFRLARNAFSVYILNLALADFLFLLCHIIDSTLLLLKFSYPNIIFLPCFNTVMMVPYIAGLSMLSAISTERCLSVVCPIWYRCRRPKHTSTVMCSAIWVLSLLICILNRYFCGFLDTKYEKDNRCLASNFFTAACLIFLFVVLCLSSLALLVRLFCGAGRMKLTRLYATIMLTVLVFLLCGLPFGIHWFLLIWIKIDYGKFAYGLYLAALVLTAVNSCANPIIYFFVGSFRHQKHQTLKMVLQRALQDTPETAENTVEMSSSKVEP
From the text: (§1) The full length reading frame was inserted into the mammalian expression vector pcDNA3 (Invitrogen, Carlsbad, Calif., U.S.A.) and the resulting expression construct was transiently transfected with the FuGENE 6 reagent (Roche Molecular Biochemicals, Mannheim, Germany) into HEK293 cells stably transfected (E. Bender, unpublished) with pLEC/Gqi or pLEC/Gqo (Molecular Devices, Sunnyvale, Calif., U.S.A.). The cells were loaded with Fluo-4 (Molecular Probes, Eugene, Oreg., U.S.A.) according to the recommendations of the supplier.
After a 15 minutes incubation at room temperature, the same cells were challenged with 30 nM adenine, to detect antagonistic properties of molecules added in the first round of superfusion.

[2] = system: wild type CHO cells; assay: [3H]adenine competition binding on wild type CHO membranes; settings: 15 nM [3H]adenine
Procedure: The membranes were prepared as total particulate fractions. […] The culturing medium was removed and the cells were washed twice with ice cold phosphate buffered saline (PBS without Ca^2+ and Mg^2+), scraped from the plates in 50 mM Tris-HCl buffer, pH 7.4, and collected by centrifugation (10 minutes at 16,000 RPM at 4° C.). The cell pellet was re-suspended in hypotonic 5 mM Tris-HCl buffer, pH 7.4, and homogenized with an Ultra Turrax homogenizer (Janker Kunkel, Germany). The homogenate was centrifuged at 18,000 RPM for 20 minutes at 4° C. The final pellet was re-suspended in 50 mM Tris-HCl buffer, pH 7.4 and stored in aliquots at −70° C. A protein determination was performed using the Bradford protein assay (Biorad, Germany) using bovine serum albumin (BSA) as standard.
(§2) Membranes were thawed on ice and diluted in 50 mM HEPES buffer, pH 7.4 supplemented with 10 mM MgCl2 and 1 mM EGTA. […] Both assays were carried out in a final volume of 500 μl, using 18 μg of membrane protein for the transfected CHO cells and 30 μg of membrane protein for the wild type CHO cells for the saturation binding. For competition binding experiments, 15 and 50 μg of membrane protein was used for the transfected and wild type cells, respectively. The reaction was terminated by rapid filtration through Whatman GF/B filters using a Brandel multi-channel cell harvester (96 wells). The filters were washed three times with 3 ml ice cold 50 mM HEPES buffer, pH 7.4, transferred to liquid scintillation vials and 3 ml of scintillation fluid (Ultima Gold MV, Packard, Netherlands) was added. Samples were counted in a β-scintillation counter after at least 6 hours to permit the glass fiber filters to become uniformly translucent.

[3] = molecular target: T2, rat adenine binding GPCR (Rattus norvegicus, UniProt Q7TN49); assay: FLIPR Ca2+ transient assay, agonism, HEK293/Gq chimera cells transiently transfected with rat adenine binding GPCR/pcDNA3; format: cell-based; set-up: The full length reading frame was inserted into the mammalian expression vector pcDNA3; expressed in transfected cells; host or cells: HEK293 cells stably transfected with pLEC/Gqi or pLEC/Gqo; settings: for agonistic effects on Ca2+ transients: concentrations ranging from 30 μM to 30 pM
T2 sequence (Q7TN49 1-304): T1 sequence (Q7TN49 1-304)
From the text: This assay is based around an instrument called a FLuorescence Imaging Plate Reader ((FLIPR®), Molecular Devices Corporation). In its most common configuration, it excites and measures fluorescence emitted by fluorescein-based dyes. It uses an argon-ion laser to produce high power excitation at 488 nm of a fluorophore, a system of optics to rapidly scan the over the bottom of a 96-/384-well plate and a sensitive, cooled CCD camera to capture the emitted fluorescence. It also contains a 96-/384-well pipetting head allowing the instrument to deliver solutions of test agents into the wells of a 96-/384-well plate. The FLIPR assay is designed to measure fluorescence signals from populations of cells before, during and after addition of compounds, in real time, from all 96-/384-wells simultaneously. […] As described below, calcium transients in cells transfected with adenine binding GPCR were measured using the FLIPR assay in order to measure activation of the receptors by various substrates in order to determine the natural ligand of the receptor.
as §1, with “supplier. […]” for “supplier.”
Using the FLIPR assay as above, calcium transients were measured in both sets of cells with the transients attributable to the novel GPCR measured as the difference between the two transients. Results are illustrated in FIG. 4. […]

[4] = molecular target: T3, adenine binding rat receptor (Rattus norvegicus, UniProt Q7TN49); assay: [3H]adenine competition binding on CHO membranes transiently transfected; settings: transfected cells, 15 nM [3H]adenine
T3 construct: expressed in transfected cells; host or cells: CHO cells, transient, lipofectamine PLUS
T3 sequence (Q7TN49 1-304): T1 sequence (Q7TN49 1-304)
Procedure: (§3) The membranes were prepared as total particulate fractions. The cell lines were cultured to […] on 145 mm petri dishes and treated with 5 mM sodium butyrate, 24 hours before collection. The culturing medium was removed and the cells were washed twice with ice cold phosphate buffered saline (PBS without Ca^2+ and Mg^2+), scraped from the plates in 50 mM Tris-HCl buffer, pH 7.4, and collected by centrifugation (10 minutes at 16,000 RPM at 4° C.). The cell pellet was re-suspended in hypotonic 5 mM Tris-HCl buffer, pH 7.4, and homogenized with an Ultra Turrax homogenizer (Janker Kunkel, Germany). The homogenate was centrifuged at 18,000 RPM for 20 minutes at 4° C. The final pellet was re-suspended in 50 mM Tris-HCl buffer, pH 7.4 and stored in aliquots at −70° C. A protein determination was performed using the Bradford protein assay (Biorad, Germany) using bovine serum albumin (BSA) as standard.
as §2, with “A) Methods—[3H]Adenine binding experiments were performed to characterize wild type cell lines before transfection as well as transiently and permanently transfected cell lines. Membranes” for “Membranes”

[5] = system: HEK293; assay: Preliminary [3H]adenine binding on wild-type cells
Procedure: as §2, with “A) Methods—[3H]Adenine binding experiments were performed to characterize wild type cell lines before transfection as well as transiently and permanently transfected cell lines. Membranes” for “Membranes”
(§4) The assay conditions were identical to those for the transfected cells.

[6] = system: CHO; assay: Preliminary [3H]adenine binding on wild-type cells; settings: pool 1 and pool 2
Procedure: as §2, with “A) Methods—[3H]Adenine binding experiments were performed to characterize wild type cell lines before transfection as well as transiently and permanently transfected cell lines. Membranes” for “Membranes”
as §4

[7] = system: Cos7; assay: Preliminary [3H]adenine binding on wild-type cells
Procedure: as §2, with “A) Methods—[3H]Adenine binding experiments were performed to characterize wild type cell lines before transfection as well as transiently and permanently transfected cell lines. Membranes” for “Membranes”
as §4

[8] = system: C6 glioma; assay: Preliminary [3H]adenine binding on wild-type cells
Procedure: as §2, with “A) Methods—[3H]Adenine binding experiments were performed to characterize wild type cell lines before transfection as well as transiently and permanently transfected cell lines. Membranes” for “Membranes”
as §4

[9] = system: NIH3T3; assay: Preliminary [3H]adenine binding on wild-type cells
Procedure: as §2, with “A) Methods—[3H]Adenine binding experiments were performed to characterize wild type cell lines before transfection as well as transiently and permanently transfected cell lines. Membranes” for “Membranes”
as §4

[10] = molecular target: T3, adenine binding rat receptor; assay: [3H]adenine saturation binding on CHO membranes transiently transfected; settings: transfected cells
Procedure: as §3
as §2, with “A) Methods—[3H]Adenine binding experiments were performed to characterize wild type cell lines before transfection as well as transiently and permanently transfected cell lines. Membranes” for “Membranes”
Addition of Gpp-NHp blocks the high-affinity or agonist binding sites of GPCRs, so that only low-affinity sites are available.

[11] = system: wild type CHO cells; assay: [3H]adenine saturation binding on wild type CHO membranes; settings: mean n=3
Procedure: as §3
A) Methods—[3H]Adenine binding experiments were performed to characterize wild type cell lines before transfection as well as transiently and permanently transfected cell lines. Membranes were thawed on ice and diluted in 50 mM HEPES buffer, pH 7.4 supplemented with 10 mM MgCl2 and 1 mM EGTA. […] Samples were counted in a β-scintillation counter after at least 6 hours to permit the glass fiber filters to become uniformly translucent. […]

[12] = system: wild type CHO cells; assay: cAMP measurements on wild type CHO cells; format: cell-based; settings: wild type
Procedure: For permanently transfected CHO cells, cAMP measurements were performed using the indirect RIA kit from NEN (Belgium).
a) Methods: Two days before the experiment the cells were seeded out in a 96 well plate at a density required for approximately 90% confluence at the day of the experiment. After removal of the growth medium, the cells were washed twice with a controlled salt solution (CSS) containing 25 mM Tris-HCl, pH 7.4, 120 mM NaCl, 5.4 mM KCl, 0.8 mM MgCl2, 1.8 mM CaCl2, 15 mM glucose and 15 mg/l phenol red, with an addition of a phosphodiesterase inhibitor IBMX (3-isobutyl-1-methylxanthine) in a concentration of 1 mM and […]. Basal cAMP levels were determined in CSS containing these additives and maximally stimulated cAMP levels were determined in the presence of 50 μM forskolin. For testing agonistic activity, the compounds were incubated with the cells for 20 minutes at 37° C. The reaction was stopped by addition of ice cold HClO4 (1N) and stored at −20° C. After thawing the mixtures were neutralized with an equivalent amount of phosphate buffered KOH, left at 4° C. during 30 minutes to allow the salts to precipitate and centrifuged at 2,000 RPM for 5 minutes at 4° C.
For the quantitative determination of the cAMP levels, a 96-well Flashplate radioimmunoassay kit from NEN was used, according to the protocol of the supplier. The sigmoid concentration response curves (duplicate points) were analyzed using the GraphPad Prism program.

Structure (SMILES): Nc1ncnc2nc[nH]c12 [[^3H]adenine]
[3H]adenine binding [5]: 168 fmoles/mg protein | [3H]adenine binding [6]: 303 fmoles/mg protein (pool 1) and 583 fmoles/mg protein (pool 2) | [3H]adenine binding [7]: 226 fmoles/mg protein | [3H]adenine binding [8]: 839 fmoles/mg protein | [3H]adenine binding [9]: 642 fmoles/mg protein | average saturation binding levels [10]: around 19 pmol/mg | Bmax ([10]; 100 μM Gpp-NHp, mean n=3): 17341 fmoles/mg protein | Kd ([10]; 100 μM Gpp-NHp, mean n=3): 61 nM | Kd ([10]; 100 μM Gpp-NHp, single experiments): 57 nM and 72 nM and 54 nM | Bmax ([10]; No Gpp-NHp, mean n=3): 18894 fmoles/mg protein | Kd ([10]; No Gpp-NHp, mean n=3): 24 nM | Bmax ([10]; No Gpp-NHp, single experiments): 25375 fmoles/mg protein and 17569 fmoles/mg protein and 13738 fmoles/mg protein | Kd ([10]; No Gpp-NHp, single experiments): 23 nM and 25 nM | Kd ([11]; 100 μM Gpp-NHp): 16 nM | Kd ([11]; No Gpp-NHp): 26 nM

Structure (SMILES): C=C[C@@]1(C)CC(=O)[C@]2(O)[C@@]3(C)[C@@H](O)CCC(C)(C)[C@@H]3[C@H](O)[C@H](OC(C)=O)[C@@]2(C)O1 [forskolin]
cAMP level with Forskolin 50 μM ([12]; 0.5% hiFCS, induction): 25 pmol/well | cAMP level with Forskolin 50 μM ([12]; 0.5% hiFCS, no induction): 26 pmol/well | cAMP level with Forskolin 50 μM ([12]; 10% hiFCS, induction): 63 pmol/well | cAMP level with Forskolin 50 μM ([12]; 10% hiFCS, no induction): 107 pmol/well

The next lines start with results.

antagonistic effect [1]: did not elicit antagonistic effects | agonistic effects on Ca2+ transients [3]: No further agonistic effects | Ki ([4]; mean of n experiments): 52800 nM | pIC50 ([4]; mean of n experiments): 4.07 | Ki ([4]; single experiments): 58.5 µM (2×) and 40.7 µM | pIC50 ([4]; single experiments): 4.02 and 4.18
Structure (SMILES): Nc1ncnc2c1ncn2[C@@H]1O[C@H](COP(=O)(O)OP(=O)(O)OP(=O)(O)O)[C@@H](O)[C@H]1O [ATP]
pIC50 ([2]; mean of n experiments): <4 | pIC50 ([2]; single experiments): <4

antagonistic effect [1]: did not elicit antagonistic effects | agonism of nucleoside and nucleotide derivatives of adenine ([3]; at high concentrations (>3.3 μM)): weak partial agonism | IC50 ([4]; mean of n experiments): ~100000 nM | IC50 ([4]; single experiments): > 100000 nM and 72400 nM | Ki ([4]; single experiments): 44600 nM
Structure (SMILES): Nc1ncnc2c1ncn2[C@@H]1O[C@H](CO)[C@@H](O)[C@H]1O [Adenosine, adenosine]
pIC50 ([2]; mean of n experiments): <4 | pIC50 ([2]; single experiments): <4

antagonistic effect [1]: did not elicit antagonistic effects | calcium transients elicited ([3]; HEK293/Gaqo cells, 3.3 μM): could not be elicited | agonistic effects on Ca2+ transients [3]: No further agonistic effects | IC50 ([4]; mean of n experiments): > 100000 nM | IC50 ([4]; single experiments): > 100000 nM
Structure (SMILES): O=c1[nH]cnc2nc[nH]c12 [Hypoxanthine, hypoxanthine]
pIC50 ([2]; mean of n experiments): <4 | pIC50 ([2]; single experiments): <4
